Where “and” joins values, the source holds several entries; their conditions need not be identical. Identical values can stand only once. Each block holds one compound with its values, some of them ahead of it.
Test system: PDC 521955-158-R6-J3 spheroids, viability
Test: Anticancer human tumor 521955-158-R6-J3-PDC patient-derived pancreatic carcinoma cell line growth inhibition [TAK]
Conditions: spheroids with HUVEC and MSC; for viability, T/C: stronger effect = lower value
Text: Combinatorial screen of targeted agents with TAK-243 and ipatasertib in multi-cell type tumor spheroids
A high-throughput screen of multi-cell type tumor spheroids was designed to identify active combinations of targeted small molecules and TAK-243 or ipatasertib. Complex spheroids include a stromal component modeled by human endothelial cells (HUVEC) and fibroblasts modeled by human mesenchymal stem cells (MSCs). The concentration ranges selected for each drug and investigational agent were based upon clinically achievable concentrations if the clinical Cmax of the agent was known.
Compounds. The drugs and investigational agents: TAK-243 (785004), ipatasertib (767898), everolimus (733504), selumetinib (741078), bortezomib (756655), trametinib (758246), ixazomib (758254), vemurafenib (761431), dabrafenib (764134), sapanisertib (764658), alpelisib (765974), and copanlisib (816437), were obtained from the National Cancer Institute (NCI) Developmental Therapeutics Program Chemical Repository. The FDA-approved anticancer drug set is available from the NCI Developmental Therapeutics Program. […] The stock solutions were prepared in dimethyl sulfoxide (DMSO, Sigma-Aldrich, St. Louis, MO, cat. D2650) at 800-fold the tested concentration and stored at -70 degrees C prior to their use. All drugs and investigational agents were tested over a range starting from a high concentration at or near the clinical Cmax and decreasing in half-log increments. If the clinical Cmax for an agent had not been determined, the highest concentration tested was 10 microM.
NCI60 Cell Culture. NCI60 cell lines were obtained from the NCI Developmental Therapeutics Program Tumor Repository. For each lot of cells, the Repository performed Applied Biosystems AmpFLSTR Identifiler testing with PCR amplification to confirm consistency with the published Identifier STR profile for each cell line. Cells were kept in continuous culture for no more than 20 passages. The optimal seeding densities for each of the cell lines at each time point assessed were determined prior to performing the concentration response studies. Briefly, the NCI60 human tumor lines were grown as monolayers in RPMI 1640 medium supplemented with 10% FBS and 2 mmol/L L-glutamine.
An additional 2 lines were from the NCI60 cell line panel including melanomas, MALME-3M and SK-MEL-2. Pooled donor human umbilical vein endothelial cells (HUVEC, Lonza, cat. CC-2519) and human mesenchymal stem cells (hMSC, Lonza, cat. PT-2501) were purchased from Lonza (Walkersville, MD).
PDMR cell lines were grown in complete medium (DC medium): Dulbecco's modified Eagle's medium (DMEM)/F12 supplemented with 5% fetal bovine serum (FBS), 2 mM L-glutamine, 100 U/mL penicillin and 100 µg/ml streptomycin, 0.4 µg/ml hydrocortisone, 10 ng/ml epidermal growth factor (EGF) recombinant human protein, 24 µg/mL adenine, and 0.1 mg/mL primocin. During culture from frozen stock vials, PDMR cells were cultured in the same medium containing 10 µM Y-27632 (see Table 3). The PDCs were cultured in complete DMEM/F12 media without 10 microM Y-27632 dihydrochloride for at least two passages prior to the screen. The pooled donor HUVEC and hMSC were cultured in endothelial cell growth medium 2 (PromoCell, Heidelberg, Germany, cat. C-22011) and mesenchymal stem cell growth medium 2 (PromoCell, cat. C-28009), respectively. For all experiments, HUVEC and hMSC were used at passages </=5.
For the pre-screen, cell seeding densities were determined from a titration spanning the range from 5,000 to 313 cells per well. The mct-spheroids including 60% malignant cells, 25% HUVEC and 15% MSC dispensed as a mixture into U-bottom Ultra-Low Attachment 384-well plates (Corning, NY)
High-throughput Drug Combination Screening.
Prior to their inoculation into 384-well plates, malignant cells, HUVEC, and hMSC were removed from T flasks using TrypLE express (Thermo Fisher Scientific, cat. 12605036) and harvested by centrifugation for 5 min at 233 x g. […]

[1] = curve of first compound, second compound 0.3 µM
[2] = curve of first compound, second compound 0.949 µM
[3] = curve of first compound, second compound 3 µM
[4] = curve of first compound, second compound 9.49 µM
[5] = curve of first compound, second compound 30 µM
[6] = second compound 0.3 µM, first compound 0.000316 µM
[7] = second compound 0.3 µM, first compound 0.001 µM
[8] = second compound 0.3 µM, first compound 0.00316 µM
[9] = second compound 0.3 µM, first compound 0.01 µM
[10] = second compound 0.949 µM, first compound 0.000316 µM
[11] = second compound 0.949 µM, first compound 0.001 µM
[12] = second compound 0.949 µM, first compound 0.00316 µM
[13] = second compound 0.949 µM, first compound 0.01 µM
[14] = second compound 3 µM, first compound 0.000316 µM
[15] = second compound 3 µM, first compound 0.001 µM
[16] = second compound 3 µM, first compound 0.00316 µM
[17] = second compound 3 µM, first compound 0.01 µM
[18] = second compound 9.49 µM, first compound 0.000316 µM
[19] = second compound 9.49 µM, first compound 0.001 µM
[20] = second compound 9.49 µM, first compound 0.00316 µM
[21] = second compound 9.49 µM, first compound 0.01 µM
[22] = second compound 30 µM, first compound 0.000316 µM
[23] = second compound 30 µM, first compound 0.001 µM
[24] = second compound 30 µM, first compound 0.00316 µM
[25] = second compound 30 µM, first compound 0.01 µM
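Note: spheroids exposed to drugs for 7 days before readout.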
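Throughout, for viability, T/C: 100% = DMSO vehicle control viability.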

Structure (SMILES): CC(C)CC(NC(=O)CNC(=O)c1cc(Cl)ccc1Cl)B1OC(=O)CC(CC(=O)O)(C(=O)O)O1 (centres undefined) + CC(C)NCC(C(=O)N1CCN(c2ncnc3c2C(C)CC3O)CC1)c1ccc(Cl)cc1
IC50 [1]: 55.9 nM
IC50 [2]: 54.3 nM
IC50 [3]: 49.1 nM
IC50 [4]: 41.8 nM
IC50 [5]: 33.6 nM
viability, T/C [6]: 86.8%
viability, T/C [7]: 92.5%
viability, T/C [8]: 106%
viability, T/C [9]: 97.8%
viability, T/C (second compound 0.3 µM, first compound 0.0316 µM): 92.9%
viability, T/C (second compound 0.3 µM, first compound 0.1 µM): 6.28%
viability, T/C [10]: 84.3%
viability, T/C [11]: 93.8%
viability, T/C [12]: 97.9%
viability, T/C [13]: 100%
viability, T/C (second compound 0.949 µM, first compound 0.0316 µM): 89.1%
viability, T/C (second compound 0.949 µM, first compound 0.1 µM): 5.88%
viability, T/C [14]: 86.3%
viability, T/C [15]: 90.7%
viability, T/C [16]: 92.6%
viability, T/C [17]: 104%
viability, T/C (second compound 3 µM, first compound 0.0316 µM): 78.7%
viability, T/C (second compound 3 µM, first compound 0.1 µM): 3.93%
viability, T/C [18]: 92.7%
viability, T/C [19]: 92.5%
viability, T/C [20]: 96.9%
viability, T/C [21]: 98%
viability, T/C (second compound 9.49 µM, first compound 0.0316 µM): 65%
viability, T/C (second compound 9.49 µM, first compound 0.1 µM): 3.75%
viability, T/C [22]: 82.3%
viability, T/C [23]: 85.2%
viability, T/C [24]: 85%
viability, T/C [25]: 99.5%
viability, T/C (second compound 30 µM, first compound 0.0316 µM): 52.7%
viability, T/C (second compound 30 µM, first compound 0.1 µM): 2.76%

IC50 (curve of compound): 76.2 nM and 28.1 nM
Structure (SMILES): COc1c(OCCCN2CCOCC2)ccc2c3n(c(=NC(=O)c4cnc(N)nc4)nc12)CCN3
viability, T/C (compound 0.00316 µM): 85.3% and 76.8%
viability, T/C (compound 0.01 µM): 79.2% and 62.1%
viability, T/C (compound 0.0316 µM): 61.2% and 49.2%
viability, T/C (compound 0.1 µM): 47.5% and 35.9%
viability, T/C (compound 0.316 µM): 30.7% and 23.5%
viability, T/C (compound 1 µM): 23.3% and 18.5%

IC50 (curve of compound): 1800 nM and > 3000 nM
Structure (SMILES): Cn1cnc2c(F)c(Nc3ccc(Br)cc3Cl)c(C(=O)NOCCO)cc21
viability, T/C (compound 0.00949 µM): 99.2% and 99.6%
viability, T/C (compound 0.03 µM): 88.9% and 88%
viability, T/C (compound 0.0949 µM): 77.6% and 83%
viability, T/C (compound 0.3 µM): 85.5% and 82.2%
viability, T/C (compound 0.949 µM): 56.9% and 70.8%
viability, T/C (compound 3 µM): 41.5% and 53.7%

Structure (SMILES): CC(C)CC(NC(=O)C(Cc1ccccc1)NC(=O)c1cnccn1)B(O)O (centres undefined) + CC(C)NCC(C(=O)N1CCN(c2ncnc3c2C(C)CC3O)CC1)c1ccc(Cl)cc1
IC50 [1]: 5.96 nM
IC50 [2]: 5.82 nM
IC50 [3]: 5.71 nM
IC50 [4]: 6.02 nM
IC50 [5]: 5.65 nM
viability, T/C (second compound 0.3 µM, first compound 31.6 pM): 94.4%
viability, T/C (second compound 0.3 µM, first compound 0.0001 µM): 95.4%
viability, T/C [6]: 94.5%
viability, T/C [7]: 96.1%
viability, T/C [8]: 111%
viability, T/C [9]: 10.6%
viability, T/C (second compound 0.949 µM, first compound 31.6 pM): 94.3%
viability, T/C (second compound 0.949 µM, first compound 0.0001 µM): 84.2%
viability, T/C [10]: 93.5%
viability, T/C [11]: 103%
viability, T/C [12]: 109%
viability, T/C [13]: 8.36%
viability, T/C (second compound 3 µM, first compound 31.6 pM): 90.6%
viability, T/C (second compound 3 µM, first compound 0.0001 µM): 90.5%
viability, T/C [14]: 93%
viability, T/C [15]: 93.7%
viability, T/C [16]: 113%
viability, T/C [17]: 6.03%
viability, T/C (second compound 9.49 µM, first compound 31.6 pM): 94.3%
viability, T/C (second compound 9.49 µM, first compound 0.0001 µM): 89%
viability, T/C [18]: 97.6%
viability, T/C [19]: 96.1%
viability, T/C [20]: 104%
viability, T/C [21]: 13.5%
viability, T/C (second compound 30 µM, first compound 31.6 pM): 93.8%
viability, T/C (second compound 30 µM, first compound 0.0001 µM): 92.1%
viability, T/C [22]: 89.9%
viability, T/C [23]: 98.5%
viability, T/C [24]: 98.4%
viability, T/C [25]: 6.17%

From PubChem BioAssay AID2060350 (Molecular Pharmacology Branch, DTP, NCI, 2025)
